A word on the melting point: it is the temperature of the solid-liquid transition.

Structures are written as SMILES. Like-named read-outs stand apart in the source and are kept apart here.

Data set [1] deals with human subjects. Description: "Difference from Reference" human taste test (sweetness). It counts as in vivo. An excerpt:
To determine how the intensity of a test sample of an experimental compound differs from that of a reference sample in terms of sweetness. This type of study requires a larger panel (typically 15-20 Subjects) in order to obtain statistically significant data.
Subjects rate the difference in intensity of the test sample compared to the reference sample for the key attribute on a scale of −5 (much less sweet than the reference) to +5 (much more sweet than the reference). A score of 0 indicates the test sample is equally as sweet as the reference.
Ten or more Subjects are used for the “Difference from Reference” tests. Subjects have been previously familiarized with the key attribute taste and are trained to use the −5 to +5 scale. Subjects refrain from eating or drinking (except water) for at least 1 hour prior to the test. Subjects eat a cracker and rinse with water four times to clean the mouth.
Test solutions can include the experimental compound in water, the experimental compound plus a key tastant (e.g., 4% sucrose, 6% sucrose, 6% fructose, 6% fructose/glucose, or 7% fructose/glucose, at pH 7.1 or 2.8), and a range of key tastant only solutions as references.
Samples of the key tastant without the experimental compound are used to determine if the panel is rating accurately; i.e., the reference is tested against itself (blind) to determine how accurate the panel is rating on a given test day. The solutions are dispensed in 10 ml volumes into 1 oz. sample cups and served to the Subjects at room temperature.
Subjects first taste the reference sample then immediately taste the test sample and rate the difference in intensity of the key attribute on the Difference from Reference scale (−5 to +5). All samples are expectorated. Subjects may retaste the samples but can only use the volume of sample given. Subjects must rinse at least twice with water between pairs of samples. Eating a cracker between sample pairs may be required depending on the samples tasted.
The scores for each test are averaged across Subjects and standard error is calculated. Panel accuracy can be determined using the score from the blind reference test. ANOVA and multiple comparison tests (such as Tukey's Honestly Significant Difference test) can be used to determine differences among pairs, provided the reference sample is the same among all tests. If the identical test pair is tested in another session, a Student's t-test (paired, two-tailed; alpha=0.05) can be used to determine if there is any difference in the ratings between sessions.
A number of different reference sweeteners have been utilized for the measurement of sweet taste enhancement. […]

Data set [2] addresses T1, hT1R2/hT1R3 sweet receptor (Homo sapiens, UniProt Q7RTX0+Q8TE23).
T1 construct: expressed in transfected cells; host or cells: HEK293 derivative stably expressing Gα15, clone S-9
T1 sequence (Q8TE23 20-839): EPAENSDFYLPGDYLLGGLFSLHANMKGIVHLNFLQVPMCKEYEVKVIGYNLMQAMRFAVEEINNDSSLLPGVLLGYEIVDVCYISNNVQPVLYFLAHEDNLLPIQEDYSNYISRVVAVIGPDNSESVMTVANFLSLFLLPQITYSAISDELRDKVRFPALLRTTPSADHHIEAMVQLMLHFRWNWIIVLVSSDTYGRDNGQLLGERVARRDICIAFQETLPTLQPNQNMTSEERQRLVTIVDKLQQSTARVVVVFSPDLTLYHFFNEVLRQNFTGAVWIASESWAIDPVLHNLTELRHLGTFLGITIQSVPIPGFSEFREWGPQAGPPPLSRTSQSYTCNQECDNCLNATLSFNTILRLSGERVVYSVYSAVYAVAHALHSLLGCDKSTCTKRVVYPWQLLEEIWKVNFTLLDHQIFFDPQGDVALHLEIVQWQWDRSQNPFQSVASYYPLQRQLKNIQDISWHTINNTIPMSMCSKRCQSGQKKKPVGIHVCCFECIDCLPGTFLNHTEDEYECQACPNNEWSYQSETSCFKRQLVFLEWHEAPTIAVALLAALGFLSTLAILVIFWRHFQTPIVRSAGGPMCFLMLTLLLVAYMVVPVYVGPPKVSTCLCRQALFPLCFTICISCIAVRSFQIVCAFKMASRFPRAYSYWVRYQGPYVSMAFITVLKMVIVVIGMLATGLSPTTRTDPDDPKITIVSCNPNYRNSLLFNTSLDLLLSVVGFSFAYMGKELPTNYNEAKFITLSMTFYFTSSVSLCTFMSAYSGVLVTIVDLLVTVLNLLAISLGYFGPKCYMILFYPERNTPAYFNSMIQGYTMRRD
T1 sequence (Q7RTX0 21-852): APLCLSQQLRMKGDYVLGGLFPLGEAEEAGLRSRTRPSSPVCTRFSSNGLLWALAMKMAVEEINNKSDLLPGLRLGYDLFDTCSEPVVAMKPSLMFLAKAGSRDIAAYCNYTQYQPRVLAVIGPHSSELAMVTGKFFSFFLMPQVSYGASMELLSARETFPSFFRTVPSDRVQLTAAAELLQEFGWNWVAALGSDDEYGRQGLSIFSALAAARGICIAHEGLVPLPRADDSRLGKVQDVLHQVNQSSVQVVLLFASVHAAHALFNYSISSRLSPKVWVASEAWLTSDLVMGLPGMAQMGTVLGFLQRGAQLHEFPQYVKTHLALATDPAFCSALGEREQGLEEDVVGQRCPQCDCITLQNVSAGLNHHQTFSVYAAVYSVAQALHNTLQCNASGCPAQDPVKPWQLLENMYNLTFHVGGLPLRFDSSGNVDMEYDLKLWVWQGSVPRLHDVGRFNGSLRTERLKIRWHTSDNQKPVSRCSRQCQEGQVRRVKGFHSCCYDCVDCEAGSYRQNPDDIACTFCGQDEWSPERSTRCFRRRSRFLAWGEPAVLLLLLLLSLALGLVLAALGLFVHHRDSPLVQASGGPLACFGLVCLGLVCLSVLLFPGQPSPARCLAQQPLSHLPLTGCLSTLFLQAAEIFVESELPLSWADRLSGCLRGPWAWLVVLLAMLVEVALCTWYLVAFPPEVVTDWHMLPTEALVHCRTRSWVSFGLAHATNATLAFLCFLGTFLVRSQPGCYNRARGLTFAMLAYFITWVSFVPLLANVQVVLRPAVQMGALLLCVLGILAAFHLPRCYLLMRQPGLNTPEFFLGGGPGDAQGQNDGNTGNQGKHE
The data set can be described thus: In vitro hT1R2/hT1R3 sweet taste receptor activation assay (FLIPR, dose response). Format: cell-based. A digest of the protocol:
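Dose-response at 10 concentrations (60 nM–30 µM, duplicates) measured as Fluo-3AM calcium fluorescence on FLIPR in hT1R2/hT1R3 S-9 cells, in D-PBS at room temperature. Responses scaled to 400 mM D-fructose. EC50s from regression with all curve parameters floating.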

The target of data set [3] is T2, hT1R1/hT1R3 umami receptor (Homo sapiens, UniProt Q7RTX0+Q7RTX1).
T2 construct: expressed in transfected cells; host or cells: HEK293 derivative stably expressing Gα15, clone I-17, expression induced with mifepristone
T2 sequence (Q7RTX1 21-841): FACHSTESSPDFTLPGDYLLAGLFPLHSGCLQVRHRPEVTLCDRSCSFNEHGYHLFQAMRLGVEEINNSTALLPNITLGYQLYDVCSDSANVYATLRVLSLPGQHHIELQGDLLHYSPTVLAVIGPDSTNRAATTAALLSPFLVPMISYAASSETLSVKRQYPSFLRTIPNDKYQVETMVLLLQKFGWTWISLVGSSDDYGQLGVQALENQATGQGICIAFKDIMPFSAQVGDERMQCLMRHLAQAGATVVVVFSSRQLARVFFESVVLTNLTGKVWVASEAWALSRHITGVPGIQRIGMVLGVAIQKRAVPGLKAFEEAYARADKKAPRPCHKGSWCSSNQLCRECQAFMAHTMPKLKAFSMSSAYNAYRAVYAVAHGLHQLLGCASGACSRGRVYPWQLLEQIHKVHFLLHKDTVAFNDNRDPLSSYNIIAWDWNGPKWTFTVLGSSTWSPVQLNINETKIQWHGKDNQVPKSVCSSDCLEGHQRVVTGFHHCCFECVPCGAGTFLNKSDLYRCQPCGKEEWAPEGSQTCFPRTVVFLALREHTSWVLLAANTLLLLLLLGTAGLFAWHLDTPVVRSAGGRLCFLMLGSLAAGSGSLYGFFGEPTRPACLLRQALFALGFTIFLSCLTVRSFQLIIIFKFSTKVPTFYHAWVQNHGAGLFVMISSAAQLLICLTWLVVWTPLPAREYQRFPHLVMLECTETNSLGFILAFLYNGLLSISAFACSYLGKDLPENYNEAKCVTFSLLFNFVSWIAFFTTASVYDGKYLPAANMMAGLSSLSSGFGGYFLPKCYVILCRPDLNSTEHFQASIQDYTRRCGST
T2 sequence (Q7RTX0 21-852): T1 sequence (Q7RTX0 21-852)
Description: Umami taste enhancement assay: shift of the MSG EC50 (EC50 ratio vs. MSG). Conditions: Table E. Format: cell-based. Here is the method:
A series of measurements of the dose response is run in solutions comprising MSG alone, then a second dose response is run with MSG in combination with predetermined amounts of a candidate compound of Formula (I) at the same time.
Typical compound concentrations tested were 30 μM, 10 μM, 3 μM, 1 μM, 0.3 μM, 0.1 μM and 0.03 μM. The relative efficacy of compounds of Formula (I) at enhancing the receptor was determined by calculating the magnitude of a shift in the EC50 for monosodium glutamate. Enhancement was defined as a ratio (EC50R) corresponding to the EC50 of monosodium glutamate, determined in the absence of the test compound, divided by the EC50 of monosodium glutamate, determined in the presence of the test compound.
Stated alternatively, “EC50 ratio” as compared to MSG is calculated based on the following definitions: EC50 Ratio vs. MSG=EC50 (MSG)/EC50 (MSG+[Compound]) • wherein “[compound]” refers to the concentration of the compound of Formula (I) used to elicit (or enhance or potentiate) the MSG dose response.

Where [4] appears, read: read-out: EC50 for activation of a hT1R2/hT1R3 sweet receptor expressed in an HEK293 cell line.

In the case of `Cc1nocc1C(=O)N[C@@H]1CCCc2ccccc21` [Example 175, 3-Methyl-isoxazole-4-carboxylic acid (1,2,3,4-tetrahydro-naphthalen-1-yl)-amide], in data set [1] (50 μM compound + 4% sucrose, pH not measured or controlled), the “Perceived Equivalent Sweet Solution” value worked out at 6% sucrose. Further, the EC50 in data set [2] (setting [4]) is 5.8 µM.

Turning to `O=C(N[C@@H]1CCc2ccccc21)c1cccc(Cl)c1O` [Example E127, (R)-3-chloro-N-(2,3-dihydro-1H-inden-1-yl)-2-hydroxybenzamide], the EC50 in data set [2] (Table E, Sweet Enhancer Amides, read-out: Sweet EC50) worked out at 0.95 µM. Moreover, the “Umami EC50 ratio” value in data set [3] is on record as 2.81 (10 M cpd).

`Cc1cc(C)c2c(c1)[C@H](NC(=O)c1conc1C)CCC2` [Example 176, (R)—N—(5,7-Dimethyl-1,2,3,4-tetrahydronaphthalen-1-yl)-3-methylisoxazole-4-carboxamide] gave a melting point of 124 to 125 °C. The “Perceived Equivalent Sweet Solution” value in data set [1] (10 μM compound + 7% fructose/glucose, pH 2.8) is reported as “Equal to 10.5% fructose/glucose”. Also, the “Perceived Equivalent Sweet Solution” value in data set [1] (10 μM compound + 7% fructose/glucose, pH 7.1) is listed as “Equal to 10% fructose/glucose”. In addition, in data set [2] (setting [4]), the EC50 came out at 0.52 µM.

The molecule `COc1cccc2c1CCC[C@H]2NC(=O)c1cccc(Cl)c1O` [Example 177, (R)-3-Chloro-2-hydroxy-N-(5-methoxy-1,2,3,4-tetrahydronaphthalen-1-yl) benzamide] gave a melting point of 175 to 176 °C. The “Perceived Equivalent Sweet Solution” value in data set [1] (3 μM compound + 6% fructose/glucose, pH 7.1) is given as “Equal to 10% fructose/glucose”. Moreover, the EC50 in data set [2] (setting [4]) worked out at 0.18 µM.
